Experimental data reported in patent US9221838B2, “Inhibitors of AKT activity” (ALMAC DISCOVERY LIMITED, priority 2009, dated 2015).
pIC50: −log10 of the molar value.

What was measured:
Assay type in all cases: biochemical
AKT1 = molecular target: T1, AKT1 (Homo sapiens, UniProt P31749); assay: AKT Kinase Assay (IMAP fluorescent polarisation) vs AKT1
T1 construct: purchased SignalChem
Method in brief: (§1)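 Phosphorylation of FAM-Crosstide detected by IMAP binding and fluorescence polarisation (485/528 nm), with IC50 fitted from % inhibition versus vehicle. Compound was incubated 45 min with enzyme, then reacted 1 h at room temperature with ATP and peptide in Tris/MgCl2/DTT buffer. Dose response had fourteen half-log points.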

AKT2 = molecular target: T2, AKT2 (Homo sapiens, UniProt P31751); assay: AKT Kinase Assay (IMAP fluorescent polarisation) vs AKT2
T2 construct: purchased SignalChem
T2 sequence (P31751 whole entry): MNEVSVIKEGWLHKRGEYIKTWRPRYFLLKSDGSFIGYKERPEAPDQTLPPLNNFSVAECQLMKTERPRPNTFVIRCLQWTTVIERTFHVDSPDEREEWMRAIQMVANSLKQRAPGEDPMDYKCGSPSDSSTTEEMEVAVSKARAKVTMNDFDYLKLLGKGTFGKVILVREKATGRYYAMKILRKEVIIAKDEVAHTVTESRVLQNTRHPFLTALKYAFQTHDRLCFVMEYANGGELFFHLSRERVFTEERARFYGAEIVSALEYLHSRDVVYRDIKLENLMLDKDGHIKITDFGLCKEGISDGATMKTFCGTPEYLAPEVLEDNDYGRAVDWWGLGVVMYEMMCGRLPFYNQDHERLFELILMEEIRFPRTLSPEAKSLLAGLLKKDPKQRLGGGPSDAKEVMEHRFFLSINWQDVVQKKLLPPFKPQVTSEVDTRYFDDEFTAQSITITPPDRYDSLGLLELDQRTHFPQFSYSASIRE
Method in brief: as §1

AKT3 = molecular target: T3, AKT3 (Homo sapiens, UniProt Q9Y243); assay: AKT Kinase Assay (IMAP fluorescent polarisation) vs AKT3
T3 construct: purchased SignalChem
T3 sequence (Q9Y243 whole entry): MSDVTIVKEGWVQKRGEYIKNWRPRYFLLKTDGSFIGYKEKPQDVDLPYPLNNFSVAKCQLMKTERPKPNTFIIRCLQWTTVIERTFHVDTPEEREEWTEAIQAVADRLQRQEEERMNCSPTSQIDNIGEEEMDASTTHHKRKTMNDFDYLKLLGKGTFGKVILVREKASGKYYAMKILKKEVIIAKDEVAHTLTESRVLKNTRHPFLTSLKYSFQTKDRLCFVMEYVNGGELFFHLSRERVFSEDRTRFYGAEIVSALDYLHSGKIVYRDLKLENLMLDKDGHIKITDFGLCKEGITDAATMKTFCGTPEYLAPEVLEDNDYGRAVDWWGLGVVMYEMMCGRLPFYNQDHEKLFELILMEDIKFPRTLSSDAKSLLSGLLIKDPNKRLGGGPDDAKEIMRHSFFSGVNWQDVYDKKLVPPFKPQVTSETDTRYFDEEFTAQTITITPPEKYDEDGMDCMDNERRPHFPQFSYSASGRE
Method in brief: as §1

T1 sequence (P31749 whole entry): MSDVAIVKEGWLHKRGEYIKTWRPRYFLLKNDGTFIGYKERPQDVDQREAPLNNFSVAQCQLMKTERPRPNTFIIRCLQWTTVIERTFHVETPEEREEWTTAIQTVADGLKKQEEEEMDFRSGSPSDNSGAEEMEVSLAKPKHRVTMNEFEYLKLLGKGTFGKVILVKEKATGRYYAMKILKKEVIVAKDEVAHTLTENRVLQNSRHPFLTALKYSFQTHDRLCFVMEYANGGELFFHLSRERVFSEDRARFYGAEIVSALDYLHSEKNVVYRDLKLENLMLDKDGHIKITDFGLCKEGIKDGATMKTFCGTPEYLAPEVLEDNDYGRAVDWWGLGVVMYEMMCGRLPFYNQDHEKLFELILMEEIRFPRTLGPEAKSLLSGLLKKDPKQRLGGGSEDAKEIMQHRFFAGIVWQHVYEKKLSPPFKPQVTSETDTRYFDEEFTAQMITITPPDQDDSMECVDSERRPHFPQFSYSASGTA

Q: What does the source list for `NC1(c2ccc(-c3nc4c(cc3-c3ccccc3)-n3c(nn(CC(F)(F)F)c3=O)CO4)cc2)CCC1` [Example 103, 7-(4-(1-aminocyclobutyl)phenyl)-8-phenyl-2-(2,2,2-trifluoroethyl)-2,4-dihydro-1H-pyrido[2,3-b][1,2,4]triazolo[4,3-d][1,4]oxazin-1-one]?
A: pIC50 (AKT1): 5.00 to 6.00; pIC50 (AKT2): 6.00 to 7.00; pIC50 (AKT3): 5.00 to 6.00

Q: Which results are given for `NC1(c2ccc(-c3nc4c(cc3-c3ccccc3)-n3c(nnc3C3CC3)CO4)cc2)CCC1` [Example 110, 1-(4-(1-cyclopropyl-8-phenyl-4H-pyrido[2,3-b][1,2,4]triazolo[4,3-d][1,4]oxazin-7-yl)phenyl)cyclobutanamine]?
A: pIC50 (AKT1): 6.00 to 7.00; pIC50 (AKT2): 6.00 to 7.00; pIC50 (AKT3): 6.00 to 7.00

Q: `CC(C)N1C(=O)COc2nc(-c3ccc(C4(N)CCC4)cc3)c(-c3ccccc3)cc21` [Example 57, 6-(4-(1-aminocyclobutyl)phenyl)-1-isopropyl-7-phenyl-1H-pyrido[2,3-b][1,4]oxazin-2(3H)-one] was tested. Which pIC50 (AKT1) did it give?
A: 5.00 to 6.00

Q: What about the pIC50 (AKT2) of the same compound?
A: 6.00 to 7.00

Q: What about the pIC50 (AKT3) of the same compound?
A: 5.00 to 6.00

Q: How did the pIC50 (AKT1) turn out when `NC1(c2ccc(-c3nc4c(cc3-c3ccccc3)-c3n[nH]cc3CCC4)cc2)CCC1` [Example 21, 1-(4-(9-phenyl-2,4,5,6-tetrahydropyrazolo[3′,4′:3,4]cyclohepta[1,2-b]pyridin-8-yl)phenyl)cyclobutanamine] was run?
A: 6.00 to 7.00

Q: And the pIC50 (AKT2)?
A: 5.00 to 6.00

Q: And the pIC50 (AKT3)?
A: < 5.00

Q: With `CN1c2cc(-c3ccccc3)c(-c3ccc(C4(N)CCC4)cc3)nc2OCS1(=O)=O` [Example 73, 6-(4-(1-aminocyclobutyl)phenyl)-1-methyl-7-phenyl-1H-pyrido[3,2-e][1,3,4]oxathiazine 2,2-dioxide] as the compound, how does the pIC50 (AKT1) read?
A: 5.00 to 6.00

Q: And the pIC50 (AKT2)?
A: 6.00 to 7.00

Q: And the pIC50 (AKT3)?
A: < 5.00

Q: Which results are given for `NC1(c2ccc(-c3nc4c(cc3-c3ccccc3)N(c3cccnc3)C(=O)CO4)cc2)CCC1` [Example 75, 6-(4-(1-aminocyclobutyl)phenyl)-7-phenyl-1-(pyridin-3-yl)-1H-pyrido[2,3-b][1,4]oxazin-2(3H)-one]?
A: pIC50 (AKT1): 5.00 to 6.00; pIC50 (AKT2): 5.00 to 6.00; pIC50 (AKT3): < 5.00

Q: Which results are given for `C[C@]1(O)C[C@@](N)(c2ccc(-c3nc4c(cc3-c3ccccc3)N(CC#N)C(=O)CO4)cc2)C1` [Example 150, 2-(6-(4-((1r,3r)-1-amino-3-hydroxy-3-methylcyclobutyl)phenyl)-2-oxo-7-phenyl-2,3-dihydro-1H-pyrido[2,3-b][1,4]oxazin-1-yl)acetonitrile]?
A: pIC50 (AKT1): ≥ 7.00; pIC50 (AKT2): ≥ 7.00; pIC50 (AKT3): 5.00 to 6.00

Q: What does the source list for `NC1(c2ccc(-c3nc4c(cc3-c3ccccc3)N(CCF)C(=O)N(CCF)C4)cc2)CCC1` [Example 109, 6-(4-(1-aminocyclobutyl)phenyl)-1,3-bis(2-fluoroethyl)-7-phenyl-3,4-dihydropyrido[3,2-d]pyrimidin-2(1H)-one]?
A: pIC50 (AKT1): ≥ 7.00; pIC50 (AKT2): ≥ 7.00; pIC50 (AKT3): 6.00 to 7.00

Q: With `NC1(c2ccc(-c3nc4c(cc3-c3ccccc3)-n3c(nnc3-c3cccnc3)CO4)cc2)CCC1` [Example 122, 1-(4-(8-phenyl-1-(pyridin-3-yl)-4H-pyrido[2,3-b][1,2,4]triazolo[4,3-d][1,4]oxazin-7-yl)phenyl)cyclobutanamine] as the compound, how does the pIC50 (AKT1) read?
A: 6.00 to 7.00

Q: And the pIC50 (AKT2)?
A: 5.00 to 6.00

Q: What about the pIC50 (AKT3) of the same compound?
A: 5.00 to 6.00

Q: With `NC1(c2ccc(-c3nc4c(cc3-c3ccccc3)N(Cc3cscn3)C(=O)CO4)cc2)CCC1` [Example 59, 6-(4-(1-aminocyclobutyl)phenyl)-7-phenyl-1-(thiazol-4-ylmethyl)-1H-pyrido[2,3-b][1,4]oxazin-2(3H)-one] as the compound, how does the pIC50 (AKT1) read?
A: 5.00 to 6.00

Q: What about the pIC50 (AKT2) of the same compound?
A: 6.00 to 7.00

Q: What about the pIC50 (AKT3) of the same compound?
A: 5.00 to 6.00

Q: With `CCCN1C(=O)COc2nc(-c3ccc(C4(N)CCC4)cc3)c(-c3ccccc3)cc21` [Example 105, 6-(4-(1-aminocyclobutyl)phenyl)-7-phenyl-1-propyl-1H-pyrido[2,3-b][1,4]oxazin-2(3H)-one] as the compound, how does the pIC50 (AKT1) read?
A: ≥ 7.00

Q: What about the pIC50 (AKT2) of the same compound?
A: ≥ 7.00

Q: What about the pIC50 (AKT3) of the same compound?
A: 5.00 to 6.00

Q: Which results are given for `N#CCN1C(=O)C(CCO)Oc2nc(-c3ccc(C4(N)CCC4)cc3)c(-c3ccccc3)cc21` (stereo not drawn) [Example 78]?
A: pIC50 (AKT1): 6.00 to 7.00; pIC50 (AKT2): 6.00 to 7.00; pIC50 (AKT3): < 5.00

Q: `NC1(c2ccc(-c3nc4c(cc3-c3ccccc3)N(CCF)C(=O)CO4)cc2)CCC1` [Example 86, 6-(4-(1-aminocyclobutyl)phenyl)-1-(2-fluoroethyl)-7-phenyl-1H-pyrido[2,3-b][1,4]oxazin-2(3H)-one] was tested. Which pIC50 (AKT1) did it give?
A: 6.00 to 7.00

Q: What about the pIC50 (AKT2) of the same compound?
A: ≥ 7.00

Q: And the pIC50 (AKT3)?
A: 5.00 to 6.00

Q: `NC1(c2ccc(-c3nc4c(cc3-c3ccccc3)C(=O)NCC4)cc2)CCC1` [Example 22, 2-(4-(1-aminocyclobutyl)phenyl)-3-phenyl-7,8-dihydro-1,6-naphthyridin-5(6H)-one] was tested. Which pIC50 (AKT1) did it give?
A: ≥ 7.00

Q: What about the pIC50 (AKT2) of the same compound?
A: 5.00 to 6.00

Q: What about the pIC50 (AKT3) of the same compound?
A: < 5.00

Q: Which results are given for `N[C@]1(c2ccc(-c3nc4c(cc3-c3ccccc3)N(CC3CC3)C(=O)CO4)cc2)C[C@H](O)C1` [Example 140, 6-(4-((1s,3s)-1-amino-3-hydroxycyclobutyl)phenyl)-1-(cyclopropylmethyl)-7-phenyl-1H-pyrido[2,3-b][1,4]oxazin-2(3H)-one]?
A: pIC50 (AKT1): 6.00 to 7.00; pIC50 (AKT2): 6.00 to 7.00; pIC50 (AKT3): 5.00 to 6.00

Q: How did the pIC50 (AKT1) turn out when `NC1(c2ccc(-c3nc4c(cc3-c3ccccc3)/C(=N/O)CCC4)cc2)CCC1` [Example 2, 2-(4-(1-aminocyclobutyl)phenyl)-3-phenyl-7,13-dihydroquinolin-5(6H)-one oxime] was run?
A: 6.00 to 7.00

Q: What about the pIC50 (AKT2) of the same compound?
A: 5.00 to 6.00

Q: And the pIC50 (AKT3)?
A: < 5.00

Q: With `Cc1nc2c(n1O)CCc1nc(-c3ccc(C4(N)CCC4)cc3)c(-c3ccccc3)cc1-2` [Example 14, 7-(4-(1-aminocyclobutyl)phenyl)-2-methyl-8-phenyl-4,5-dihydro-3H-imidazo[4,5-f]quinolin-3-ol] as the compound, how does the pIC50 (AKT1) read?
A: 6.00 to 7.00

Q: And the pIC50 (AKT2)?
A: 5.00 to 6.00

Q: What about the pIC50 (AKT3) of the same compound?
A: 5.00 to 6.00

Q: What does the source list for `NC1(c2ccc(-c3nc4c(cc3-c3ccccc3)N(CCF)C(=O)CCN4)cc2)CCC1` [Example 117, 7-(4-(1-aminocyclobutyl)phenyl)-1-(2-fluoroethyl)-8-phenyl-4,5-dihydro-1H-pyrido[2,3-b][1,4]diazepin-2(3H)-one]?
A: pIC50 (AKT1): 5.00 to 6.00; pIC50 (AKT2): 5.00 to 6.00; pIC50 (AKT3): 5.00 to 6.00

Q: `CCNC(=O)N1CCOc2nc(-c3ccc(C4(N)CCC4)cc3)c(-c3ccccc3)cc21` [Example 88, 6-(4-(1-aminocyclobutyl)phenyl)-N-ethyl-7-phenyl-2,3-dihydro-1H-pyrido[2,3-b][1,4]oxazine-1-carboxamide] was tested. Which pIC50 (AKT1) did it give?
A: < 5.00

Q: And the pIC50 (AKT2)?
A: < 5.00

Q: And the pIC50 (AKT3)?
A: < 5.00

Q: With `CN1C(=O)COc2nc(-c3ccc(CN)cc3)c(-c3ccccc3)cc21` [Example 131, 6-(4-(aminomethyl)phenyl)-1-methyl-7-phenyl-1H-pyrido[2,3-b][1,4]oxazin-2(3H)-one] as the compound, how does the pIC50 (AKT1) read?
A: 5.00 to 6.00

Q: What about the pIC50 (AKT2) of the same compound?
A: 6.00 to 7.00

Q: And the pIC50 (AKT3)?
A: 5.00 to 6.00

Q: With `CN(C)c1nnc2n1-c1cc(-c3ccccc3)c(-c3ccc(C4(N)CCC4)cc3)nc1OC2` [Example 116, 7-(4-(1-aminocyclobutyl)phenyl)-N,N-dimethyl-8-phenyl-4H-pyrido[2,3-b][1,2,4]triazolo[4,3-d][1,4]oxazin-1-amine] as the compound, how does the pIC50 (AKT1) read?
A: 5.00 to 6.00

Q: What about the pIC50 (AKT2) of the same compound?
A: 5.00 to 6.00

Q: And the pIC50 (AKT3)?
A: 5.00 to 6.00

Q: With `NC1(c2ccc(-c3nc4c(cc3-c3ccccc3)N(Cc3ccccn3)C(=O)CO4)cc2)CCC1` [Example 56, 6-(4-(1-aminocyclobutyl)phenyl)-7-phenyl-1-(pyridin-2-ylmethyl)-1H-pyrido[2,3-b][1,4]oxazin-2(3H)-one] as the compound, how does the pIC50 (AKT1) read?
A: 6.00 to 7.00

Q: And the pIC50 (AKT2)?
A: 6.00 to 7.00

Q: And the pIC50 (AKT3)?
A: 6.00 to 7.00
